Ends that are not written are not given here. * marks the point of attachment. A∗ = N-allylalanine, C=CCN[C@@H](C)C(=O)*; code X = not defined here
Columns and labels:
UMSCC47 cells [1] = assay: Cell proliferation (MTT); assay type: cell-based, human; conditions: UMSCC47 cells; for effect on anti-proliferative efficacy of cis-platinum: 10 μM with cis-platinum 10 μM; for cell proliferation, single-agent: 10 μM, 24-72 hours
Method: (§1) Cell proliferation was assessed using the MTT reagent (Roche Molecular Biochemicals, Nutley, N.J.) to detect metabolic active cells. Absorbance was measured at 570 nm in the Spectra Max 190 ELISA reader (Molecular Devices, Sunnyvale, Calif.) after overnight incubation. For clonogenic survival, 200 cells per well were plated in complete growth media and allowed to grow until visible colonies were formed (14 days). Cell colonies were fixed with cold methanol, stained with 0.25% crystal violet in 25% methanol, washed, and air dried. For apoptosis, cells were harvested, washed with cold PBS, and co-stained with Annexin V and propidium iodide according to the manufacturer's protocol (ApoAlert Annexin V-FITC Apoptosis Kit; Clontech). Apoptotic cells were analyzed using BD FACS Calibur (BD Biosciences Corporation, Franklin Lakes, N.J.) at The Ohio State University Comprehensive Cancer Center Analytical Cytometry Core.

p53 [2] = assay: p53 transcriptional activity (Cignal p53 Firefly/Renilla luciferase reporter); assay type: cell-based, human; conditions: 24 hours; for p53 activity, increase: HPV-positive UMSCC47 cells, vs vehicle; for p53 activity, increase / p53 activity: 10 μM; for p53 activity: UMSCC74A (HPV-negative, p53 wildtype)
Method: Cells were transfected with 100 ng of Cignal p53 reporter (SABiosciences, Valencia, Calif.) using Lipofectamine 2000. Cignal p53 reporter contains tandem repeats of the p53 consensus transcriptional response element. After 48 hours, cells were washed with cold PBS, lysed in passive lysis buffer (Promega), and measured for Firefly/Renilla dual luciferase activities in a luminometer using the Dual-Light System (Applied Biosystems, Foster City, Calif.). […] to control for transfection efficiency. A modification to the protocol was used for compound treatment. UMSCC47 cells were transfected with 100 ng of Cignal p53 reporter. After 24 hours, cells were treated with vehicle, CH1iB (10 μM), cis-platinum (10 μM), or combination of CH1iB (10 μM) and cis-platinum (10 μM) and measured for Firefly/Renilla dual luciferase activities 24 hours post-treatment.

UMSCC74A cells = assay: Cell proliferation (MTT); assay type: cell-based, human; conditions: for cell proliferation, single-agent: HPV-negative UMSCC74A cells, 10 μM; for effect on efficacy of cis-platinum on proliferation: UMSCC74A cells, 10 μM with cis-platinum 10 μM
Method: as §1

HPV16 E6-p300 = target: T1, HPV16 E6-p300 (Homo sapiens, UniProt Q09472); assay: Immunoprecipitation of HPV16 E6-p300 association; assay type: cell-based; conditions: UMSCC47 cells, 10 μM, 24 hours
T1 construct: Cell lysates were extracted, immunoprecipitated with anti-p300 antibody, and immunoblotted with anti-E6 antibody; endogenous in cells; host or cells: UMSCC47 (HPV16-positive HNSCC)
T1 sequence (Q09472 whole entry): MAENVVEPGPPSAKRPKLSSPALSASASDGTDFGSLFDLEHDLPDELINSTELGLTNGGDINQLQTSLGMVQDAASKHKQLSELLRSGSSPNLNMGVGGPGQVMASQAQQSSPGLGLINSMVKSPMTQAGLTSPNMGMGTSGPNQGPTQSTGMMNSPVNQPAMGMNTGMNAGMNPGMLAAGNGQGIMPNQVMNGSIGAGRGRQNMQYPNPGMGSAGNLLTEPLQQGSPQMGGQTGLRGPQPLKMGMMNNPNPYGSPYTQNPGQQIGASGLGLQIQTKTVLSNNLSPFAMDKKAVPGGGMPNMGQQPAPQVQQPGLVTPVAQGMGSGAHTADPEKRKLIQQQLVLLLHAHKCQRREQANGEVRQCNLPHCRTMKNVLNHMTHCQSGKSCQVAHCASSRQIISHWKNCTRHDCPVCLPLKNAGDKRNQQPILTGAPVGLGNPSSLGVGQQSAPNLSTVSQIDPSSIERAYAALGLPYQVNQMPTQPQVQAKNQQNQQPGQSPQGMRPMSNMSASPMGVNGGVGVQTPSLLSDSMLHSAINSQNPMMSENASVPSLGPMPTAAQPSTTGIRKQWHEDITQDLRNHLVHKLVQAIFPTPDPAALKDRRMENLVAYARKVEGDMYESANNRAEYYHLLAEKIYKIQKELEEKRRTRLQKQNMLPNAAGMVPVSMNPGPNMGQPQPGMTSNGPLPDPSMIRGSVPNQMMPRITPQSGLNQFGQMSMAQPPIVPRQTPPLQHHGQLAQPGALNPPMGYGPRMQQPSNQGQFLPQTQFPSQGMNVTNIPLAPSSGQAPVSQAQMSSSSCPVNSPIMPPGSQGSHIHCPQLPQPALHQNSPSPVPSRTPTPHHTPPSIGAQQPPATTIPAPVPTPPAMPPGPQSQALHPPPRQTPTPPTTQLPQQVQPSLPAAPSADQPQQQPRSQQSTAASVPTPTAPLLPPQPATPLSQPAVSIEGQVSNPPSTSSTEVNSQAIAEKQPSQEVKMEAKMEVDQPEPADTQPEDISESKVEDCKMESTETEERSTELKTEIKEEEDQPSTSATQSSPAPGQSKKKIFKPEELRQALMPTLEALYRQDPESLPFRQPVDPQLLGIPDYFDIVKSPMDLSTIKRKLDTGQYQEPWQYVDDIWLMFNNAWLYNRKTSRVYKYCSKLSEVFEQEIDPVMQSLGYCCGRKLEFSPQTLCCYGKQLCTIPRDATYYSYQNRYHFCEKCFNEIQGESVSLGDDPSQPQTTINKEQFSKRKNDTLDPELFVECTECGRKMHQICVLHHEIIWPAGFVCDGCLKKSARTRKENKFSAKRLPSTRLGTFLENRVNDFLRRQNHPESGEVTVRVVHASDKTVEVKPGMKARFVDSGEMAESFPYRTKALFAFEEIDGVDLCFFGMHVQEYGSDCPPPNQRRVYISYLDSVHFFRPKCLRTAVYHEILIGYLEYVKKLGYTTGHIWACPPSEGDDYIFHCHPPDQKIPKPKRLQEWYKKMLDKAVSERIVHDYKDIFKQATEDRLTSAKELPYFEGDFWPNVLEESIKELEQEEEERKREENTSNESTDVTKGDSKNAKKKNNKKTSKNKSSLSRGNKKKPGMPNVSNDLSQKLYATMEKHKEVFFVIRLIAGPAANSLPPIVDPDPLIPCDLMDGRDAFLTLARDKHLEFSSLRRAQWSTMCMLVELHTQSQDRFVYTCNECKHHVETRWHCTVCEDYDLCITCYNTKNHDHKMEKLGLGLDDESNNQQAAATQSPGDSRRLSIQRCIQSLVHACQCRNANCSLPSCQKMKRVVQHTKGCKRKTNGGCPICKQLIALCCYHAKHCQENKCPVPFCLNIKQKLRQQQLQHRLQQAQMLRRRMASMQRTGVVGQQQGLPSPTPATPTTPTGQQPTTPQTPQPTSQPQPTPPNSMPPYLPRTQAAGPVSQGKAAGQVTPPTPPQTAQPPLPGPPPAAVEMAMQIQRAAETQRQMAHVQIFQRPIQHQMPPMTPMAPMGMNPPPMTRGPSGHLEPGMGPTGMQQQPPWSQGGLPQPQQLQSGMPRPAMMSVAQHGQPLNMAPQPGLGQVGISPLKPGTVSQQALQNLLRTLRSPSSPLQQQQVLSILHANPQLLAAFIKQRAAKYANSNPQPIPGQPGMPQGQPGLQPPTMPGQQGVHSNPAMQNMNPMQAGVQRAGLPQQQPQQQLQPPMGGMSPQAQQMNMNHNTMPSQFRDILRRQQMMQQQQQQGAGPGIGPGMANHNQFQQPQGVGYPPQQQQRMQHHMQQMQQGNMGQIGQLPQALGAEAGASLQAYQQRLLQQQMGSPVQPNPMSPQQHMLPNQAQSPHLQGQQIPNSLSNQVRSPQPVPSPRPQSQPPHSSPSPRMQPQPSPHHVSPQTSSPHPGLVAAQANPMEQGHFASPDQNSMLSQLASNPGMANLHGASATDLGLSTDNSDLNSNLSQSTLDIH
Method: Cells were lysed with NP buffer [50 mM Tris (pH 8.0), 150 mM NaCl, 0.5% deoxycholate, 0.1% SDS, and 1.0% NP-40] containing 1× Protease Inhibitor Cocktail (Roche, Switzerland) at 4° C. with gentle rocking for 15 min. The supernatant was pre-cleared to block nonspecific binding with 50 μL protein A/G Agarose beads (Pierce Biotechnology) that had been pre-washed with NP buffer before use. Equal amounts of anti-E6 antibody (Abcam), anti-p300 antibody (Millipore), or IgG antibody (Cell Signaling) were added to the respective samples. After 4 hours incubation at 4° C., 50 μL pre-washed protein A/G-agarose beads were added to each tube and immunoprecipitation was performed by rocking overnight at 4° C. The immunoprecipitated complexes were washed with NP buffer and then eluted using 2×SDS sample buffer. Eluted sample and 10% of input were resolved by SDS-PAGE for Western blot analysis with anti-E6, anti-p300, or anti-V5 antibodies.

UMSCC47 cells [3] = assay: Clonogenic survival (crystal violet); assay type: cell-based, human; conditions: UMSCC47 cells, 10 μM each agent, 14 days, vs vehicle
Method: as §1

UMSCC47 cells [4] = assay: Apoptosis (Annexin V FACS); assay type: cell-based, human; conditions: 10 μM, 24 hours, vs vehicle
Method: as §1

UMSCC47 cells [5] = assay: Tumorsphere formation; assay type: cell-based, human; conditions: UMSCC47 cells, 10 μM, 7 days, vs vehicle
Method: Cells were harvested and seeded in a serum-free defined medium consisting of KSF medium supplemented with epidermal growth factor, basic fibroblast growth factor, insulin, and hydrocortisone in low-attachment plates (Corning Incorporated, Corning, N.Y.) for tumorspheres. Tumorsphere formation efficiency was calculated as the number of tumorspheres ([…] in diameter) formed in 7 days divided by the original number of cells seeded. Tumorsphere diameter was measured using NIS-Elements software.

[6] = test system: IMR90 (human normal fibroblasts); assay: Cell proliferation (MTT); assay type: cell-based; conditions: for effect on efficacy of cis-platinum on proliferation: IMR90 fibroblasts, 10 μM with cis-platinum 10 μM; for cell proliferation, single-agent: human normal IMR90 fibroblasts, 10 μM
Method: as §1

p53 [7] = assay: Western blot of total and acetylated[K382] p53 levels; assay type: cell-based, human; conditions: 24 hours; for acetylated p53 levels / p53 accumulation / p53 levels: 10 μM; for p53 levels: UMSCC74A
Method: Whole cell lysates were mixed with Laemmli loading buffer, boiled, separated by SDS-PAGE, and transferred to a nitrocellulose membrane. Subsequently, immunoblot analyses were performed using antibodies specific to V5 (Invitrogen), p53 (sc-126, Santa Cruz Biotechnology, Santa Cruz, Calif.), or acetylated[[…]]-p53 (2525, Cell Signaling Technology). The signal was developed using the SuperSignal Western Blotting Kit (Pierce, Rockford, Ill.).

[8] = test system: p300, p53, p21, miR-34a, miR-200c; assay: Quantitative real-time PCR of p300, p53, p21, miR-34a and miR-200c expression; assay type: cell-based, human; conditions: 10 μM, 24 hours; for expression of p300, p53, and p53-regulated genes: UMSCC74A
Method: Cells were extracted for total RNA using the TRIzol® reagent (Invitrogen) or TaqMan PreAmp Cells-to-CT kit (Applied Biosystems). Expression of p300, p53, p21, miR-34a and miR-200c were determined using the Applied Biosystems 7900HT Fast Real-Time PCR System with validated TaqMan gene expression assays (Applied Biosystems). p53, p300, and p21 expression were normalized to GADPH and miR-34a and miR-200c expression were normalized to RNU44 using the ΔΔCt method.

CH1 domain of p300 = CH1 domain of p300 (Homo sapiens, UniProt Q09472); conditions: competes with endogenous HIF-1α for p300; Henchey et al. 2010; cited from earlier work
Chain of CH1 domain of p300 (Q09472 whole entry, the tested form may be a part): as the sequence (Q09472 whole entry) above

[9] = UMSCC47 cells, 10 μM with cis-platinum 10 μM

Row | Substance | effect on anti-proliferative efficacy of cis-platinum (UMSCC47 cells [1]) | cell proliferation, single-agent (UMSCC47 cells [1]) | p53 activity, increase (p53 [2]) | cell proliferation, single-agent (UMSCC74A cells) | effect on efficacy of cis-platinum on proliferation (UMSCC74A cells) | association between E6 and p300 (HPV16 E6-p300) | effect of cis-platinum on p53 activity (p53 [2]; [9]) | p53 activity (p53 [2]) | clonogenic survival, reduction/inhibition (UMSCC47 cells [3]) [%] | apoptosis, enhanced by (UMSCC47 cells [4]) [%] | tumorsphere formation, reduced by (UMSCC47 cells [5]) [%] | effect on efficacy of cis-platinum on proliferation [6] | cell proliferation, single-agent [6] | effect of cis-platinum on p53 accumulation and acetylation (p53 [7]; [9]) | acetylated p53 levels (p53 [7]; UMSCC47 cells) | p53 accumulation (p53 [7]; UMSCC47 cells) | p53 levels (p53 [7]) | p21, miR-34a, and miR-200c expression ([8]; UMSCC47 cells) | expression of p300, p53, and p53-regulated genes [8] | HIF-1α-mediated transcription of vascular endothelial growth factor (CH1 domain of p300)
1 | XELA*RAADQ-NH2 [CH1iB-mut] | no effect | no effect | 14% | – | – | – | – | – | – | – | – | – | – | – | – | – | – | – | – | –
2 | XELA*RALDQ-NH2 [CH1iB] | potentiated | inhibited the proliferation | 71% | no effect | did not augment | reduced | potentiated | did not modulate | 35 | 353 | 20 | did not augment | no effect | potentiated | enhanced | enhanced | did not modulate | modest but significant increase | unchanged | –
3 | XTAA*DCEYNAR ({code X-Thr-Ala-A∗}-DCEYNAR; staple (positions not given here); reading uncertain; also: HBS: 4-pentenoic acid, N-allylalanine, printed as XTAA*DCEYNAR) [CH1iA, hydrogen bond surrogate stabilized α-helical mimic of HIF-1α targeting site A of p300 CH1; X = 4-pentenoic acid, A* = N-allylalanine, reference compound] | – | inactive | no effect | no effect | did not augment | – | – | did not modulate | – | – | – | did not augment | no effect | – | no effect | no effect | did not modulate | – | unchanged | reduction

— patent US20140205681A1, “HYDROGEN-BOND SURROGATE PEPTIDES AND PEPTIDOMIMETICS FOR p53 REACTIVATION” (New York University, priority 2013, published 2014)
